# According to patent publication US8865698B2, “Method of treatment using substituted pyrazolo[1,5-a]pyrimidine compounds” (Array BioPharma Inc., priority 2008, dated 2014):
# Where a name gives a salt, the structure may show the parent alone.
# Target: histidine-tagged recombinant human TrkA, cytoplasmic domain (Homo sapiens (Human), UniProt P04629)
# Experiment: TrkA ELISA Assay
# Format: biochemical
# Settings: 2.5 nM TrkA, 500 μM ATP, 25 minutes; read-out: TrkA Elisa Enzyme IC50
# Description: An enzyme-linked immunosorbant assay (ELISA) was used to assess TrkA kinase activity in the presence of inhibitors. Immulon 4HBX 384-well microtiter plates (Thermo part #8755) were coated with a 0.025 mg/mL solution of poly (Glu, Ala, Tyr; 6:3:1; Sigma P3899). Various concentrations of test compound, 2.5 nM TrkA (Invitrogen Corp., histidine-tagged recombinant human TrkA, cytoplasmic domain), and 500 μM ATP were incubated for 25 minutes at ambient temperature in the coated plates while shaking. The assay buffer consisted of 25 mM MOPS pH 7.5, 0.005% (v/v) Triton X-100 and 5 mM MgCl2. The reaction mixture was removed from the plate by washing with PBS containing 0.1% (v/v) Tween 20. The phosphorylated reaction product was detected using 0.2 μg/mL of a phosphotyrosine specific monoclonal antibody (clone PY20) conjugated to horseradish peroxidase in conjunction with the TMB Peroxidase Substrate System (KPL). After the addition of 1M phosphoric acid, the chromogenic substrate color intensity was quantitated via absorbance at 450 nm. IC50 values were calculated using either a 4 or 5-parameter logistic curve fit.
# histidine-tagged recombinant human TrkA, cytoplasmic domain, sequence (P04629 440-796): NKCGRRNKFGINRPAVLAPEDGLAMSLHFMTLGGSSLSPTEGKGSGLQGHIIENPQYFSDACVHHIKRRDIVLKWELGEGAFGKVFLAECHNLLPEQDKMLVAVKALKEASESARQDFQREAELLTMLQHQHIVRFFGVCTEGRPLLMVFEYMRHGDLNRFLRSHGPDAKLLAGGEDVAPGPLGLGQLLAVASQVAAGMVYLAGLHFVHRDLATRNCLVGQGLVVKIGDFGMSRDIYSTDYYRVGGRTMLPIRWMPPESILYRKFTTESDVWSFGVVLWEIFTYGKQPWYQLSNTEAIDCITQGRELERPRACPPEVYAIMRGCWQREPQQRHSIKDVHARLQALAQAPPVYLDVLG
row,SMILES,IC50 [nM]
1,"O=C(Nc1cnn2ccc(N3CCC[C@@H]3c3cc(F)ccc3C(F)F)nc12)N1CC[C@H](O)C1 [Example 37, (S)—N-(5-((R)-2-(2-(difluoromethyl)-5-fluorophenyl)pyrrolidin-1-yl)pyrazolo[1,5-a]pyrimidin-3-yl)-3-hydroxypyrrolidine-1-carboxamide]",8.7
2,"O=C(Nc1cnn2ccc(N3CCC[C@@H]3c3cc(F)ccc3Cl)nc12)N1CC[C@H](O)C1 [Example 81, (S)—N-(5-((R)-2-(2-chloro-5-fluorophenyl)pyrrolidin-1-yl)pyrazolo[1,5-a]pyrimidin-3-yl)-3-hydroxypyrrolidine-1-carboxamide]",8
3,"CC(C)C(=O)Nc1cnn2ccc(N3CCC[C@@H]3c3cc(F)ccc3F)nc12 [Example 5, (R)—N-(5-(2-(2,5-difluorophenyl)pyrrolidin-1-yl)pyrazolo[1,5-a]pyrimidin-3-yl)isobutyramide]",12.1
4,"O=C(Nc1cnn2ccc(N3CCC[C@@H]3c3cncc(F)c3)nc12)N1CC[C@@H](O)C1 [Example 89, (R)—N-(5-((R)-2-(5-fluoropyridin-3-yl)pyrrolidin-1-yl)pyrazolo[1,5-a]pyrimidin-3-yl)-3-hydroxypyrrolidine-1-carboxamide]",896
5,"COc1ncccc1C(=O)Nc1cnn2ccc(N3CCC[C@@H]3c3cccc(F)c3)nc12 [Example 79, (R)—N-(5-(2-(3-fluorophenyl)pyrrolidin-1-yl)pyrazolo[1,5-a]pyrimidin-3-yl)-2-methoxynicotinamide]",5.7
6,"Cc1cccc(C(=O)Nc2cnn3ccc(N4CCC[C@@H]4c4cc(F)ccc4F)nc23)n1 [Example 60, (R)—N-(5-(2-(2,5-difluorophenyl)pyrrolidin-1-yl)pyrazolo[1,5-a]pyrimidin-3-yl)-6-methylpicolinamide]",4.2
7,"O=C(Nc1cnn2ccc(N3CCC[C@@H]3c3cc(F)cc(Cl)c3)nc12)N1CC(O)C1 [Example 11, (R)—N-(5-(2-(3-chloro-5-fluorophenyl)pyrrolidin-1-yl)pyrazolo[1,5-a]pyrimidin-3-yl)-3-hydroxyazetidine-1-carboxamide]",171
8,"O=C(Nc1cnn2ccc(N3CCC[C@@H]3c3cc(F)ccc3C(F)(F)F)nc12)N1CCC[C@@H](O)C1 [Example 86, (R)—N-(5-((R)-2-(5-fluoro-2-(trifluoromethyl)phenyl)pyrrolidin-1-yl)pyrazolo[1,5-a]pyrimidin-3-yl)-3-hydroxypiperidine-1-carboxamide]",14
9,"O=C(Nc1cnn2ccc(N3CCC[C@@H]3c3cc(F)ccc3F)nc12)C1(C(F)(F)F)CC1 [Example 51, (R)—N-(5-(2-(2,5-difluorophenyl)pyrrolidin-1-yl)pyrazolo[1,5-a]pyrimidin-3-yl)-1-(trifluoromethyl)cyclopropanecarboxamide]",5.2
10,"O=C(Nc1cnn2ccc(N3CCC[C@@H]3c3cc(F)ccc3C(F)(F)F)nc12)N1CC[C@H](O)C1 [Example 84, (S)—N-(5-((R)-2-(5-fluoro-2-(trifluoromethyl)phenyl)pyrrolidin-1-yl)pyrazolo[1,5-a]pyrimidin-3-yl)-3-hydroxypyrrolidine-1-carboxamide]",3.2
11,"Cc1cccnc1C(=O)Nc1cnn2ccc(N3CCC[C@@H]3c3cccc(F)c3)nc12 [Example 69, (R)—N-(5-(2-(3-fluorophenyl)pyrrolidin-1-yl)pyrazolo[1,5-a]pyrimidin-3-yl)-3-methylpicolinamide]",6.2
12,"O=C(Nc1cnn2ccc(N3CCC[C@@H]3c3cc(F)cc(Cl)c3)nc12)N1CC[C@H](O)C1 [Example 35, (S)—N-(5-((R)-2-(3-chloro-5-fluorophenyl)pyrrolidin-1-yl)pyrazolo[1,5-a]pyrimidin-3-yl)-3-hydroxypyrrolidine-1-carboxamide]",20.2

# More lines, in order of falling IC50, values ahead:
row,IC50 [nM],SMILES
1,190,"O=C(Nc1cnn2ccc(N3CCC[C@@H]3c3cc(F)ccc3Cl)nc12)C1CNC1 [Example 47, (R)—N-(5-(2-(2-chloro-5-fluorophenyl)pyrrolidin-1-yl)pyrazolo[1,5-a]pyrimidin-3-yl)azetidine-3-carboxamide trifluoroacetate]"
2,45.5,"CCS(=O)(=O)Nc1ccc(C(=O)Nc2cnn3ccc(N4CCC[C@@H]4c4cccc(F)c4)nc23)cc1 [Example 72, (R)-4-(ethylsulfonamido)-N-(5-(2-(3-fluorophenyl)pyrrolidin-1-yl)pyrazolo[1,5-a]pyrimidin-3-yl)benzamide]"
3,31,"C[C@]1(C(=O)Nc2cnn3ccc(N4CCC[C@@H]4c4cc(F)ccc4F)nc23)CCCN1 [Example 53, (R)—N-(5-((R)-2-(2,5-difluorophenyl)pyrrolidin-1-yl)pyrazolo[1,5-a]pyrimidin-3-yl)-2-methylpyrrolidine-2-carboxamide]"
4,30.8,"O=C(Nc1cnn2ccc(N3CCC[C@@H]3c3cc(F)ccc3C(F)F)nc12)N1CCC[C@H](O)C1 [Example 40, (S)—N-(5-((R)-2-(2-(difluoromethyl)-5-fluorophenyl)pyrrolidin-1-yl)pyrazolo[1,5-a]pyrimidin-3-yl)-3-hydroxypiperidine-1-carboxamide]"
5,27.5,"COC1CN(C(=O)Nc2cnn3ccc(N4CCC[C@@H]4c4cc(F)ccc4F)nc23)C1 [Example 16, (R)—N-(5-(2-(2,5-difluorophenyl)pyrrolidin-1-yl)pyrazolo[1,5-a]pyrimidin-3-yl)-3-methoxyazetidine-1-carboxamide]"
6,26.5,"O=C(Nc1cnn2ccc(N3CCC[C@@H]3c3cc(F)ccc3C(F)F)nc12)N1CC(O)C1 [Example 12, (R)—N-(5-(2-(2-(difluoromethyl)-5-fluorophenyl)pyrrolidin-1-yl)pyrazolo[1,5-a]pyrimidin-3-yl)-3-hydroxyazetidine-1-carboxamide]"
7,15.8,"CN(C)C(=O)Nc1cnn2ccc(N3CCC[C@@H]3c3cc(F)ccc3F)nc12 [Example 2, (R)-3-(5-(2-(2,5-difluorophenyl)pyrrolidin-1-yl)pyrazolo[1,5-a]pyrimidin-3-yl)-1,1-dimethylurea]"
8,15.3,"CC(C)(C)OC(=O)N1CCC(C)(C(=O)Nc2cnn3ccc(N4CCC[C@@H]4c4cc(F)ccc4Cl)nc23)CC1 [Example 48, (R)-tert-butyl 4-(5-(2-(2-chloro-5-fluorophenyl)pyrrolidin-1-yl)pyrazolo[1,5-a]pyrimidin-3-ylcarbamoyl)-4-methylpiperidine-1-carboxylate]"
9,15.3,"O=C(Nc1cnn2ccc(N3CCC[C@@H]3c3cccc(F)c3)nc12)c1cc[nH]n1 [Example 74, (R)—N-(5-(2-(3-fluorophenyl)pyrrolidin-1-yl)pyrazolo[1,5-a]pyrimidin-3-yl)-1H-pyrazole-3-carboxamide]"
10,7.65,"CNC(=O)C(=O)Nc1cnn2ccc(N3CCC[C@@H]3c3cc(F)ccc3F)nc12 [Example 98, (R)—N^1-(5-(2-(2,5-difluorophenyl)pyrrolidin-1-yl)pyrazolo[1,5-a]pyrimidin-3-yl)-N^2-methyloxalamide]"
11,4.7,"O=C(O)C(=O)Nc1cnn2ccc(N3CCC[C@@H]3c3cc(F)ccc3F)nc12 [Example 105, (R)-2-(5-(2-(2,5-difluorophenyl)pyrrolidin-1-yl)pyrazolo[1,5-a]pyrimidin-3-ylamino)-2-oxoacetic acid]"
12,1.7,"O=C(Nc1cnn2ccc(N3CCC[C@@H]3c3cc(F)ccc3F)nc12)c1ccccn1 [Example 59, (R)—N-(5-(2-(2,5-difluorophenyl)pyrrolidin-1-yl)pyrazolo[1,5-a]pyrimidin-3-yl)picolinamide]"
